According to paper PMC9574860, “Chemical Toolkit for PARK7: Potent, Selective, and High-Throughput” (Journal of Medicinal Chemistry, 2022):
Entries after “also recorded” stand apart in the source; their conditions may differ.

What was measured:
PARK7 [1] = biological target: T1, PARK7 (Homo sapiens, UniProt Q99497); assay: DiFMUAc PARK7 activity assay; type: biochemical; set-up: GST (N, cleaved yes); made in house; host or cells: E. coli BL21(DE3) Rosetta2
T1 sequence (Q99497 1-189): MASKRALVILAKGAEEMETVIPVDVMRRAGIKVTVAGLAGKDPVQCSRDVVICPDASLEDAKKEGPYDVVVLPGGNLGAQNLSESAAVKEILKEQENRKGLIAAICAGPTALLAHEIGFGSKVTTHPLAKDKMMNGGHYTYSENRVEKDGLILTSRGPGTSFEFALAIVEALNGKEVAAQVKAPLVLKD

PARK7 [2] = biological target: T1, PARK7; assay: FP assay with Rhodamine110 probe JYQ-107 (IC50 and hit validation); type: binding; set-up: GST (N, cleaved yes); made in house; host or cells: E. coli BL21(DE3) Rosetta2; conditions: PARK7 0.2 μM, 1 h preincubation, JYQ-107 20 nM
DUBs = assay: DUB activity profiling in HEK293T cell lysate with general DUB probe Rho-Ub-PA; type: biochemical; conditions: compound 5 μM 1 h 37 °C, then Rho-Ub-PA 30 min, Figure S5
Protocol: Due to the structural similarity of PARK7 inhibitor JYQ-88 and UCHL1 inhibitor 8RK64 and the fact that many cyanimide-containing compounds have been identified as DUB inhibitors,[35],[37] we investigated the inhibitory potential of JYQ-88 and JYQ-92 toward DUBs. After treating the HEK293T cell lysate with JYQ-88 and JYQ-92, along with UCHL1 inhibitors, 6RK73 and 8RK64 as controls,[38] the remaining activity of DUBs was determined using the general DUB probe Rho-Ub-PA (Figure S5).[39]
Figure S5. Fluorescence labeling of DUBs to investigate their remaining activity by Rh-Ub-
PA after the treatment with PARK7 inhibitor JYQ-88 and probe JYQ-92. UCHL1 inhibitors,
6RK73 and 8RK64, were used as a control. HEK293T cell lysate was treated with 5 μM final
MOPS SDS running buffer (Novex, NuPAGE) and visualized by fluorescence scanning on a
Typhoon FLA 9500 (GE Healthcare Life Sciences) using a Rhodamine channel (λex/em
(1 picture or pasted object on this page, not shown here)

IC50 (PARK7 [1]; DiFMUAc assay, PARK7 0.1 μM, 1 h preincubation, DiFMUAc 300 μM): 130 nM
Fold higher potency toward PARK7 than UCHL1 (PARK7 [1]; PARK7 IC50 (DiFMUAc) vs UCHL1 IC50): 85 fold
IC50 (PARK7 [2]): 240 nM
Structure (SMILES): N#CN1CC[C@@H](C(=O)Nc2nc3c(s2)CN(C(=O)CN=[N+]=[N-])CC3)C1 [JYQ-88, (R)-N-(5-(2-Azidoacetyl)-4,5,6,7-tetrahydrothiazolo[5,4-c]pyridin-2-yl)-1-cyanopyrrolidine-3carboxamide]
Effect on remaining DUB activity (Rho-Ub-PA labeled bands) (DUBs): no influence on DUB activity; also recorded: without showing any effect
